Consider 25 molecules from patent US8883792B2, “Substituted isoquinoline derivative” (D. Western Therapeutics Institute, Inc., priority 2010, dated 2014).

Experiment [1] has as its system rabbits (New Zealand White). Nature of the experiment: Ocular hypotensive effect in rabbits. Type of experiment: in vivo, rabbit. The settings on record: male New Zealand White rabbits, 0.04 mL eye drop, concentration of 1% (w/v) or lower, maximum ocular hypotensive rate vs vehicle-treated contralateral eye. A digest of the protocol: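 Male New Zealand White rabbits (3–6 per group) received 0.04 mL compound solution (pH 7.0 phosphate/NaCl vehicle or 2% boric acid) in one eye and vehicle in the other. IOP measured by rebound tonometer before dosing and over time; ocular hypotensive rate taken as treated-eye IOP relative to vehicle-eye IOP.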

The subject of experiment [2] is spontaneously hypertensive rats (SHR/Izm). Nature of the experiment: Blood pressure lowering effect in spontaneously hypertensive rats. Type of experiment: in vivo. To be noted: Rattus norvegicus, ip, male SHR/Izm rats, intraperitoneal, measured over time, read-out: lowered the systolic blood pressures by up to, compared with the value before administration. How it is done: The compound of the present invention was intraperitoneally administered to spontaneously hypertensive rats (SHR/Izm, sex: male, 4 to 6 rats per group) and evaluated for its blood pressure lowering effect. The compounds of Examples 5, 23, 25, 35, 36, 53, 58, 83, 84, 86, 87, and 90 were used as test compounds.
Each test compound was dissolved in saline and diluted to prepare a test compound solution with a predetermined concentration.
The test compound was intraperitoneally administered at a dose of 10 mg/kg to the animals, and their blood pressures and pulse rates were measured over time using Softron Indirect Blood Pressure Meter BP-98A.

Structures can show the parent of a compound that is named as a salt.

For the molecule `CCCCNC[C@@H](C)NS(=O)(=O)c1ccc2cnccc2c1` [Example 5, (R)—N-{1-(butylamino)propan-2-yl}isoquinoline-6-sulfonamide dihydrochloride], in experiment [1], the Ocular hypotensive activity entry is “++ (maximum ocular hypotensive rate of 15% or more)”. In experiment [2], the inhibition in vivo at 10 mg/kg is at most 16%.
Take `C[C@H](CNCCc1ccccc1)NS(=O)(=O)c1ccc2cnccc2c1` [Example 23, (R)—N-{1-(phenethylamino)propan-2-yl}isoquinoline-6-sulfonamide dihydrochloride]: the Ocular hypotensive activity entry in experiment [1] is “++ (maximum ocular hypotensive rate of 15% or more)”. Also, the inhibition in vivo at 10 mg/kg in experiment [2] was at least 30%.
For the molecule `C[C@H](CNC[C@H](C)c1ccccc1)NS(=O)(=O)c1ccc2cnccc2c1` [Example 25, N—[(R)-1-{(R)-2-phenylpropylamino}propan-2-yl]isoquinoline-6-sulfonamide dihydrochloride], the Ocular hypotensive activity entry in experiment [1] was “++ (maximum ocular hypotensive rate of 15% or more)”. Further, in experiment [2], the inhibition in vivo at 10 mg/kg is at least 30%.
`C[C@H](CNCCCCc1ccccc1)NS(=O)(=O)c1ccc2cnccc2c1` [Example 35, (R)—N-{1-(4-phenylbutylamino)propan-2-yl}isoquinoline-6-sulfonamide dihydrochloride]: the Ocular hypotensive activity result in experiment [1] is given as “++ (maximum ocular hypotensive rate of 15% or more)”. Further, in experiment [2], the inhibition in vivo at 10 mg/kg is at most 20%.
Regarding `C[C@H](CNCCc1c[nH]c2ccccc12)NS(=O)(=O)c1ccc2cnccc2c1.Cl` [Example 36, (R)—N-[1-{2-(1H-indol-3-yl)ethylamino}propan-2-yl]isoquinoline-6-sulfonamide hydrochloride], in experiment [1], the Ocular hypotensive activity entry is “++ (maximum ocular hypotensive rate of 15% or more)”. In addition, the inhibition in vivo at 10 mg/kg in experiment [2] was at least 30%.
As for `C[C@H](CNCCc1ccc(F)cc1)NS(=O)(=O)c1ccc2cnccc2c1.Cl` [Example 53, (R)—N-{1-(4-fluorophenethylamino)propan-2-yl}isoquinoline-6-sulfonamide hydrochloride], in experiment [1], the Ocular hypotensive activity entry was “++ (maximum ocular hypotensive rate of 15% or more)”. Also, the inhibition in vivo at 10 mg/kg in experiment [2] is at least 30%.
As for `Cc1ccc(CCNC[C@@H](C)NS(=O)(=O)c2ccc3cnccc3c2)cc1.Cl` [Example 58, (R)—N-{1-(4-methylphenethylamino)propan-2-yl}isoquinoline-6-sulfonamide hydrochloride], the Ocular hypotensive activity result in experiment [1] is recorded as “++ (maximum ocular hypotensive rate of 15% or more)”. The inhibition in vivo at 10 mg/kg in experiment [2] is at least 30%.
The like results for `C[C@H](CNC[C@@H](O)c1ccccc1)NS(=O)(=O)c1ccc2cnccc2c1.Cl` [Example 83, N—[(R)-1-{(S)-2-hydroxy-2-phenylethylamino}propan-2-yl]isoquinoline-6-sulfonamide hydrochloride] were, in that order, “++ (maximum ocular hypotensive rate of 15% or more)” and at least 30%.
In the case of `C[C@H](CNC[C@@H](O)c1ccc(F)cc1)NS(=O)(=O)c1ccc2cnccc2c1.Cl` [Example 84, N—[(R)-1-{(S)-2-(4-fluorophenyl)-2-hydroxyethylamino}propan-2-yl]isoquinoline-6-sulfonamide hydrochloride], the Ocular hypotensive activity entry in experiment [1] was “++ (maximum ocular hypotensive rate of 15% or more)”. The inhibition in vivo at 10 mg/kg in experiment [2] was at most 20%.
On to `C[C@H](CNC[C@@](C)(O)c1ccccc1)NS(=O)(=O)c1ccc2cnccc2c1.Cl` [Example 86, N—[(R)-1-{(S)-2-hydroxy-2-phenylpropylamino}propan-2-yl]isoquinoline-6-sulfonamide hydrochloride], for which, in experiment [1], the Ocular hypotensive activity result is reported as “++ (maximum ocular hypotensive rate of 15% or more)”. Also, in experiment [2], the inhibition in vivo at 10 mg/kg is at least 30%.
Take `C[C@H](CNC[C@H](O)c1ccccc1)NS(=O)(=O)c1ccc2cnccc2c1.Cl` [Example 87, N—[(R)-1-{(R)-2-hydroxy-2-phenylethylamino}propan-2-yl]isoquinoline-6-sulfonamide hydrochloride]: in experiment [1], the Ocular hypotensive activity result is “++ (maximum ocular hypotensive rate of 15% or more)”. The inhibition in vivo at 10 mg/kg in experiment [2] was at most 20%.
The like results for `C[C@H](CNC[C@@H](O)c1ccsc1)NS(=O)(=O)c1ccc2cnccc2c1.Cl` [Example 90, N—[(R)-1-{(S)-2-hydroxy-2-(thiophen-3-yl)ethylamino}propan-2-yl]isoquinoline-6-sulfonamide hydrochloride] were, in that order, “++ (maximum ocular hypotensive rate of 15% or more)” and at most 20%.
Turning to `C[C@H](CN(CCc1ccccc1)C(=O)CN)NS(=O)(=O)c1ccc2cnccc2c1.Cl` [Example 100, (R)-2-amino-N-[2-(isoquinoline-6-sulfonamido)propyl]-N-phenylethylacetamide hydrochloride], the Ocular hypotensive activity entry in experiment [1] was “++ (maximum ocular hypotensive rate of 15% or more)”.
In the case of `C[C@H](CNC(=O)Cc1ccccc1)NS(=O)(=O)c1ccc2cnccc2c1.Cl` [Example 103, (R)—N-{2-(isoquinoline-6-sulfonamido)propyl}-2-phenylacetamide hydrochloride], in experiment [1], the Ocular hypotensive activity result is listed as “++ (maximum ocular hypotensive rate of 15% or more)”.
In the case of `C[C@H](CNCC(=O)c1ccccc1)NS(=O)(=O)c1ccc2cnccc2c1` [Example 104, (R)—N-{1-(2-oxo-2-phenylethylamino)propan-2-yl}isoquinoline-6-sulfonamide dihydrochloride], in experiment [1], the Ocular hypotensive activity result is on record as “++ (maximum ocular hypotensive rate of 15% or more)”.
Regarding `C[C@H](CNCC(O)COc1ccccc1)NS(=O)(=O)c1ccc2cnccc2c1` (stereo partly drawn) [Example 108, N-{(2R)-1-(2-hydroxy-3-phenoxypropylamino)propan-2-yl}isoquinoline-6-sulfonamide dihydrochloride], in experiment [1], the Ocular hypotensive activity entry is given as “++ (maximum ocular hypotensive rate of 15% or more)”.
Turning to `C[C@H](CNCCc1ccccc1)NS(=O)(=O)c1ccc2c(N)nccc2c1.Cl` [Example 109, (R)-1-amino-N-{1-(phenethylamino)propan-2-yl}isoquinoline-6-sulfonamide hydrochloride], the Ocular hypotensive activity result in experiment [1] was “+ (maximum ocular hypotensive rate of 5% or more and less than 15%)”.
On to `C[C@H](CNCCc1ccccc1)NS(=O)(=O)c1ccc2c(O)nccc2c1.Cl` [Example 110, (R)—N-{1-(phenethylamino)propan-2-yl}-1-hydroxyisoquinoline-6-sulfonamide hydrochloride], for which, in experiment [1], the Ocular hypotensive activity result was “++ (maximum ocular hypotensive rate of 15% or more)”.
`C[C@H](CNCCc1ccccc1)NS(=O)(=O)c1ccc2c(SCCN)nccc2c1` [Example 111, (R)-1-(2-aminoethylthio)-N-{1-(phenethylamino)propan-2-yl}isoquinoline-6-sulfonamide trihydrochloride]: in experiment [1], the Ocular hypotensive activity entry was “+ (maximum ocular hypotensive rate of 5% or more and less than 15%)”.
As to `Cc1cncc2ccc(S(=O)(=O)N[C@H](C)CNCCc3ccccc3)cc12.Cl` [Example 112, (R)—N-{1-(phenethylamino)propan-2-yl}-4-methyl-isoquinoline-6-sulfonamide hydrochloride], the Ocular hypotensive activity result in experiment [1] was “++ (maximum ocular hypotensive rate of 15% or more)”.
On the same count and under the same terms, the value for `Cc1cncc2ccc(S(=O)(=O)N[C@H](C)CNCCc3ccc(F)cc3)cc12.Cl` [Example 113, (R)—N-{1-(4-fluorophenethylamino)propan-2-yl}-4-methyl-isoquinoline-6-sulfonamide hydrochloride] was “++ (maximum ocular hypotensive rate of 15% or more)”.
Regarding `C[C@H](CNCCc1ccccc1)NS(=O)(=O)c1ccc2cncc(-c3ccsc3)c2c1` [Example 115, (R)—N-{1-(phenethylamino)propan-2-yl}-4-(thiophen-3-yl) isoquinoline-6-sulfonamide dihydrochloride], the Ocular hypotensive activity result in experiment [1] was “++ (maximum ocular hypotensive rate of 15% or more)”.
On to `N[C@H](CNS(=O)(=O)c1ccc2cnccc2c1)Cc1ccccc1` [Example 116, (S)—N-(2-amino-3-phenylpropyl)isoquinoline-6-sulfonamide dihydrochloride], for which the Ocular hypotensive activity result in experiment [1] is “+ (maximum ocular hypotensive rate of 5% or more and less than 15%)”.
For the molecule `C[C@@H](NS(=O)(=O)c1ccc2cnccc2c1)[C@@H](N)CCCc1ccccc1` [Example 117, N-{(2R,3S)-3-amino-6-phenylhexan-2-yl)isoquinoline-6-sulfonamide hydrochloride], the Ocular hypotensive activity result in experiment [1] is reported as “++ (maximum ocular hypotensive rate of 15% or more)”.
In the case of `CNC(CCc1ccccc1)C[C@@H](C)NS(=O)(=O)c1ccc2cnccc2c1` (stereo partly drawn) [Example 120, N-{(2R)-4-(methylamino)-6-phenylhexan-2-yl}isoquinoline-6-sulfonamide dihydrochloride], the Ocular hypotensive activity entry in experiment [1] is “++ (maximum ocular hypotensive rate of 15% or more)”.
